# Data from patent US5985893A, “Physically stable solid form of a fluoroquinolone” (Pharmacia & Upjohn Company, priority 1996, dated 1999).
# Several values for one entry are separate records, joined by “and”; a condition that tells them apart may be missing. Equal entries are not always repeated.
# Tests used:
# Format in all cases: physicochemical
# [1] = Stability of the solid forms to phase transformation (overall finding); details: variety of conditions
# [2] = Dynamic moisture sorption gravimetry (controlled atmosphere microbalance, 25° C)
# Procedure: Dynamic Moisture Sorption Gravimetry
# Dynamic moisture uptake is studied on the controlled atmosphere microbalance system at 25° C. About ten mg of sample are equilibrated on the balance for about 2 hours at 2.5% RH. The relative humidity surrounding the sample is increased in increments of 3% RH up to about 92% RH, at which point the RH is decremented in 3% steps to a final RH of about 2.5%. At each relative humidity, the sample is allowed to equilibrate until the mass is stable within 0.0005 mg over a ten minute period. The dry mass is assumed to correspond to the mass of the sample after the initial equilibration period. A controlled atmosphere microbalance is a balance system described by Bergren, M.S. Int. J. Pharm. (1994) Vol. 103, pp. 103-114.
# Detailed description of FIG. 2. […] The ordinate represents the mass change relative to the lowest mass measurement. The abscissa is relative humidity. The circles represent points recorded after sequential increases in the relative humidity and the squares were recorded after decreases in the relative humidity. The horizontal line in the middle of the plot corresponds to the water content of the hypothetical monohydrate of the quinolone.
# Detailed description of FIG. 6. […] The ordinate represents the mass change relative to the lowest mass measurement. The abscissa is relative humidity. The circles represent points recorded after sequential increases in the relative humidity and the squares were recorded after decreases in the relative humidity. The horizontal line in the middle of the plot corresponds to the water content of the hypothetical monohydrate of the quinolone.
# [3] = DSC and thermomicroscopy of solid-state transformations
# Procedure: A Nikon POH-2 polarized light compound microscope with 10× objective is employed to view specimens mounted dry between a glass microscope slide and a no. 11/2 Cover slip. The samples are heated from ambient through 250° C. in a Mettler FP-80 microfurnace controlled by a Mettler FP-8 microprocessor. The heating rates may vary from 5-20° C./minute. The hot-stage experiments may be videotaped (Sony T120-HG and PM VHS tape) with a Hitachi VK-C350 Color Video Camera and a Panasonic AG-6200 Video Cassette Recorder.
# Differential scanning calorimetry (DSC) is used to monitor enthalpy changes as a function of temperature during a linear temperature increase. A DuPont 910 DSC interfaced to a TA Instruments TA2100 computer may be used. The scan rate is 5° C./minute, and the instrument is operated with a 50-80 cc/min dry nitrogen purge. Samples are encapsulated in hermetically sealed aluminum sample pans with a pressure rating of about 2 bar. In some experiments, the lids of the pans are perforated to permit the passage of moisture and other volatile components.
# Because calorimetric samples are occasionally affected by residual moisture, samples are sometimes studied with different initial water activities. Samples are weighed into tared DSC pans, and the open pans are permitted to equilibrate for several days in chambers of constant relative humidity at 25±1° C. These chambers are prepared from saturated salt solutions at 53% RH and 75% RH. At the end of the equilibration period, the chambers are opened, and the lids are placed over the samples to prevent re-equilibration with the ambient atmosphere. The samples are removed from the chambers, and the pans are quickly crimped closed.
# Detailed description of FIG. 8. […] The heating rate is 5° C./minute. (a.) The sample is encapsulated in a standard DSC pan. (b.) The sample is encapsulated in a hermetically sealed DSC pan. The profiles are offset along the ordinate axis for comparison.
# Detailed description of FIG. 10. […] The heating rate was 5° C./minute. (a.) The sample was equilibrated at 53% RH and encapsulated in a standard DSC pan. (b.)The sample was equilibrated at 53% RH and encapsulated in a hermetically sealed DSC pan. (c.) The sample was equilibrated at 75% RH and encapsulated in a hermetically sealed DSC pan. The profiles were offset along the ordinate axis for comparison.
# [4] = Powder XRD after humidity exposure; details: 75% relative humidity, ambient temperature, 5 days
# Procedure: A Rigaku DMAX-A X-ray diffractometer is employed for the acquisition of the powder XRD patterns. The instrument is operated with the copper K-L3 radiation at 1.5406 Å. The major instrumental parameters are set as follows: 40 KV voltage, 30 mA current, beam aperture of 1° and detector aperture (receiving slit) of 0.30°. Patterns are scanned over the range of 3-40° two-theta angles with a scan rate of 1.5° two-theta/min (step size of 0.05° and counting time at 2 second/step). Samples are ground to fine powders and packed into an aluminum tray.
smiles,measurement,setting,value
"CN[C@@H](C)[C@@H]1CCN(c2c(F)cc3c(=O)c(C(=O)O)cn(C4CC4)c3c2OC)C1 [Form I, [S-(R*,S*)]-1-cyclopropyl-6-fluoro-1,4-dihydro-8-methoxy-7-[3-[1-(methylamino)ethyl]-1-pyrrolidinyl]-4-oxo-3-quinolinecarboxylic acid]",Stability to transformation (in words),[1],undergo phase transformations under a variety of conditions
same,Moisture content on desorption,[2]; RH decreased to 10%,about 4.3%
same,Moisture content on desorption,[2]; RH decreased to 80%,about 4.9%
same,Moisture plateau,"[2]; sorption, 90-92% RH",7.5-7.7 % w/w
same,Moisture pickup,"[2]; sorption, up to 70% RH",1%
same,DSC first merged endotherm/exotherm (melt/recrystallization),"[3]; FIG. 8, 5° C./minute",140-150 °C
same,DSC second merged endotherm/exotherm (melt/recrystallization),"[3]; FIG. 8, 5° C./minute",165-180 °C
same,"DSC melt/recrystallization range, probably direct Form I to Form III","[3]; equilibrated at 53% RH, hermetically sealed pan",140-150 °C
same,DSC exotherm prior to Form III melt,"[3]; equilibrated at 75% RH, hermetically sealed pan",about 130 °C
same,Temperature of Form I to Form II transformation,[3]; slow heating/ thermomicroscopy melt/recrystallization,140-151 °C and 143-151 °C
same,Diffraction pattern after humidity exposure,[4],does not change after Form I is exposed to 75% relative humidity at ambient temperature for 5 days
